Each block holds one compound with its values, some of them ahead of it.
Experiments:
TbPTP1 [1] = target: T1, TbPTP1 (Trypanosoma brucei, UniProt Q38AT7); assay: pNPP hydrolysis inhibition; assay type: biochemical; conditions: read-out: % inhibition at 10 μM
T1 sequence (Q38AT7 1-306): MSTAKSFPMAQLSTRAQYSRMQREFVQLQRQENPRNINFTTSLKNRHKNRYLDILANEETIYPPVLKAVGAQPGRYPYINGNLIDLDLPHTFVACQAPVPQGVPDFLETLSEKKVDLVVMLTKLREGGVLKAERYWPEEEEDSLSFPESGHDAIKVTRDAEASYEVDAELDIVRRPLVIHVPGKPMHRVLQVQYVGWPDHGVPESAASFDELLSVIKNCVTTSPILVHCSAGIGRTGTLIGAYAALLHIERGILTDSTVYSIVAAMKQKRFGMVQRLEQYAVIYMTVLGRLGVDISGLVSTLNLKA

TbPTP1 [2] = target: T1, TbPTP1; assay: malachite green phosphate release, Lineweaver-Burk; assay type: biochemical; conditions: 50 mM Hepes, 150 mM NaCl, pH 7.0, 37 °C
TbPTP1 [3] = target: T1, TbPTP1; conditions: pNPP or pEGFR peptide as substrate

inhibition at 10 µM (TbPTP1 [1]): > 50%
SMILES: CCc1oc2cc(S(=O)(=O)Nc3ccc(S(=O)(=O)Nc4nccs4)cc3)ccc2c1C(=O)c1cc(Br)c(O)c(Br)c1 [BZ3, 3-(3,5-Dibromo-4-hydroxy-benzoyl)-2-ethyl-benzofuran-6-sulfonicacid-(4-(thiazol-2-ylsulfamyl)-phenyl)-amide]

SMILES: N[C@@H](COP(=O)(O)O)C(=O)O [pSer]
Km (TbPTP1 [2]): phospho-Tyr (pTyr), and phospho-Ser (pSer)

% inhibition at 1 mM (TbPTP1 [3]): 90%
SMILES: [O]=[V]([OH])([OH])[OH] [sodium orthovanadate]
